The source of these data is article PMC4669708 (Cell Death & Disease, 2015).

Assay [1] concerns HT-29 cells. The assay is described as follows: TNF-α/Smac mimetic/z-VAD-FMK (TSZ)-induced necroptosis, cell viability. The assay is classed as cell-based, human. The conditions noted are these: Homo sapiens, HT-29; TSZ treatment; read-out: EC50 (necroptosis block). How it is done: (§1) Cells were seeded in 12-, 24- or 96-well plates at proper cell density. For necroptosis or apoptosis assays, cells were incubated with the indicated compound combinations at concentrations stated for 14–24 h. Smac mimetic and z-VAD-FMK were added 30–60 min before treatment with TNF-α, FasL or TRAIL. Cell viability was determined using CellTiter Glo Luminescent Cell Viability Assay (Promega, Fitchburg, WI, USA) according to the manufacturer's instructions. Luminescence was recorded with a SpectraMax M5Multimode plate reader (Molecular Devices, Sunnyvale, CA, USA). For flow cytometry-based determination of viability, cells were harvested, collected by centrifugation, washed once and resuspended in staining buffer (1 × PBS, 10% FBS). Cells were incubated with 0.5 μg/ml PI for 10 min at room temperature (RT) in the dark. Flow cytometric analyses were performed on an LSR Fortessa (BD Biosciences) and analyzed with FlowJo software version 7.6.3 (Tree Star Inc, Ashland, OR, USA). Cell size was evaluated by forward scatter. PI-negative normal-sized cells were considered living and data were normalized to values of untreated controls.

Assay [2] relates to HT-29 cells. Put plainly: Drug toxicity, cell viability 24 h. The assay is classed as cell-based. The settings on record: Homo sapiens, HT-29, 24 h. How it is done:
as §1

For assay [3], the system named is Jurkat E6.1 cells. The assay is described as follows: FasL-induced apoptosis, cell viability. The conditions noted are these: 100 ng/ml human FasL, 24 h; 0.5 μM ponatinib, 5 μM pazopanib. The format is cell-based. As for the experimental part:
as §1, with “controls. For detection of apoptosis, cells were resuspended in Annexin V Binding Buffer (BioLegend, San Diego, CA, USA) and stained with 0.5 μg/ml PI and Alexa Fluor 647 Annexin V (BioLegend) according to manufacturer's instructions.” for “controls.”

Assay [4] deals with 3T3-SA or L929 cells. The assay is described as follows: Drug toxicity dose-response, Supplementary Figure 3. The assay is classed as cell-based, murine. The settings on record: Mus musculus, read-out: IC50 (printed in Supplementary Figure 3). How it is done: as §1, with “controls. For detection of apoptosis, cells were resuspended in Annexin V Binding Buffer (BioLegend, San Diego, CA, USA) and stained with 0.5 μg/ml PI and Alexa Fluor 647 Annexin V (BioLegend) according to manufacturer's instructions.” for “controls.”

In assay [5] the test system is HT-29 MLKL S358D cells. The assay is described as follows: Cell death driven by doxycycline-induced MLKL S358D expression. The assay is classed as cell-based, human. The conditions noted are these: 2 μg/ml doxycycline overnight; 10 μM NSA, 0.5 μM ponatinib. How it is done:
as §1, with “controls. For detection of apoptosis, cells were resuspended in Annexin V Binding Buffer (BioLegend, San Diego, CA, USA) and stained with 0.5 μg/ml PI and Alexa Fluor 647 Annexin V (BioLegend) according to manufacturer's instructions.” for “controls.”

Assay [6] addresses T1, recombinant RIPK1 (Homo sapiens, UniProt Q13546).
T1 construct: purchased Signalchem R07-10G
Put plainly: Recombinant kinase assay. The assay is classed as biochemical. The settings on record: 50 μM ATP; Supplementary Figure 4b. As for the experimental part:
Recombinant RIPK1 or RIPK3 protein was incubated with the substrate MBP in kinase assay buffer (40 mM Tris-HCl pH 7.5, 10 mM MgCl2 and 1 mM DTT) in presence of 50 μM ATP, 5 μCi [γ-32 P]ATP and the indicated inhibitors in a total volume of 20 μl. […] The terminated reactions were spotted onto a SAM2 Biotin Capture membrane (Promega) and further processed according to the manufacturer's instructions. […] Data were normalized to a DMSO-treated control sample. For autoradiography, the reactions were stopped by addition of 5 μl 4x Laemmli buffer and incubated for 5 min at 95 °C.

Molecules are shown by their SMILES. pEC50, pIC50: −log10 of the molar value. Read-outs that look alike come from different tables or passages of the source.

As a reminder, the pEC50 is the negative decadic logarithm of the EC50, by convention in mol/L. Broadly, the pIC50 is the negative decadic logarithm of the IC50, by convention in mol/L.

T1 sequence (Q13546 1-327 limits assumed): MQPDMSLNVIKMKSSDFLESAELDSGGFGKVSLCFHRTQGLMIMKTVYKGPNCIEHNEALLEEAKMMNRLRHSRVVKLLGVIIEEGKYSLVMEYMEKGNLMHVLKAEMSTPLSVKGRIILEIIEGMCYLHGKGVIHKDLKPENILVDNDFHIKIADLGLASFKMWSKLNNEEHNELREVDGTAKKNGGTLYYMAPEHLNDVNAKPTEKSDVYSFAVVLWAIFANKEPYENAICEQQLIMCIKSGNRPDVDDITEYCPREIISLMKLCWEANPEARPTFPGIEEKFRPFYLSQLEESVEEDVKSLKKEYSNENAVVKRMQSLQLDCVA

For the compound `Cc1ccc(C(=O)Nc2ccc(CN3CCN(C)CC3)c(C(F)(F)F)c2)cc1C#Cc1cnc2cccnn12` [ponatinib, Ponatinib], the pEC50 in assay [1] was 7.30. For the same compound, the pIC50 in assay [2] (read-out: IC50 (printed in Figure 2e)) is 5.05; in assay [2] (read-out: IC50 (toxicity)), 5.05; in assay [4], 5.96. The “inhibition of apoptotic cell death triggered by FasL” value in assay [3] is “none of the drugs inhibited apoptotic cell death”. Further, the “block of cell death driven by MLKL S358D expression” value in assay [5] was “did not prevent cell death”. Also, in assay [6], the “RIPK1 kinase activity (MBP phosphorylation)” value is on record as “strongly blocked phosphorylation”.
